Measured values as given in patent US12629406B2, “Alterations in endothelin receptors following hemorrhage and resuscitation by centhaquin” (MIDWESTERN UNIVERSITY, priority 2018, dated 2026).
Values joined by “and” are separate entries in the source; they are usually repeats but may differ in a detail not shown here. Equal entries are not always repeated.

Assay: Rat hemorrhagic shock, hypertonic saline resuscitation: hematocrit, arterial blood gases, lactate, base deficit
Type: in vivo
Protocol: Animals. Male Sprague-Dawley rats (340 to 380 g) (Envigo, Indianapolis, IN) were housed for at least 4 days in a room with controlled temperature (23±1° C.), humidity (50±10%) and light (6:00 A.M. to 6:00 P.M.) before being used. Food and water were made available continuously. Animal care and use for experimental procedures were approved by the Institutional Animal Care and Use Committee of the Midwestern University. All anesthetic and surgical procedures were in compliance with the guidelines established by the Animal Care Committee.
Determination of arterial blood gases and base deficit. Baseline arterial blood pH, Po2, Pco2, Na^+, K^+ and lactate were monitored prior to induction of shock, 30 minutes after induction of shock, and 30 and 60 minutes following vehicle or centhaquin resuscitation. Blood samples (0.15 ml) were drawn from the arterial cannula using blood gas sampling syringes (Innovative Medical Technologies, Inc. Leawood, K S) and analyzed using a pHOx Ultra analyzer (Nova Biomedical Corporation, Waltham, MA). The base deficit was calculated using the formula (Davis et al. 1998; Paladino et al. 2008): SBD=0.9287×[HCO3^−−24.4+14.83×(pH-7.4)]
Induction of Hemorrhagic Shock. Hemorrhage was induced by withdrawing blood from the femoral artery at a rate of approximately 0.5 to 1 mL/min until a MAP of 35 mmHg was reached. This MAP was maintained for 30 min by further withdrawal of blood, if necessary. The hemorrhagic shock model used in the present study is a well-established rodent model of manageable pressure hemorrhage (Buehler et al. 2000; Gulati et al. 1997a; Gulati and Sen 1998). The volume of blood loss was about approximately 8.0 ml in each rat and was similar in various groups, amounting to approximately 40% of the total blood. Measured hematocrit levels were similar in various groups. The duration of blood withdrawal was approximately 15 minutes.
Experimental design. To determine the resuscitative effect of centhaquin on cardiovascular system and plasma cytokines in hemorrhagic shock, rats were randomly divided into five groups, Group 1: Sham control (Non-hemorrhaged) (n=5), Group 2: Hemorrhage with no resuscitation (n=5); Group 3: Hemorrhage followed by resuscitation with 3% hypertonic saline (vehicle) (n=5); Group 4: Hemorrhage followed by resuscitation with vehicle plus centhaquin (0.017 mg/kg) (n=5); and Group 5: Hemorrhage followed by resuscitation with vehicle plus centhaquin (0.05 mg/kg) (n=5). Resuscitation was started 30 min after induction of hemorrhagic shock as an intravenous infusion (1 mL/min) through femoral vein using an infusion pump (Harvard Apparatus Infusion/Withdrawal Pump, Millis, MA). The blood samples, for biochemical estimations, were collected at 30 minutes of resuscitation and cardiovascular parameters were monitored till 60 minutes after which the animal was sacrificed. The volume of resuscitative solution was kept equal to the volume of blood loss.

[1] = 60 min after resuscitation, centhaquin 0.017 mg/kg in 3% saline
[2] = 60 min after resuscitation, centhaquin 0.05 mg/kg in 3% saline
[3] = Baseline, before hemorrhage, centhaquin 0.017 mg/kg group
[4] = Baseline, before hemorrhage, centhaquin 0.05 mg/kg group
[5] = H. Shock, before resuscitation, centhaquin 0.017 mg/kg group
[6] = H. Shock, before resuscitation, centhaquin 0.05 mg/kg group
[7] = centhaquin 0.017 and 0.05 mg/kg

Cc1cccc(N2CCN(CCc3ccc4ccccc4n3)CC2)c1 [centhaquin, 2-[2-(4-(3-methyphenyl)-1-piperazinyl)]ethyl-quinoline]
Base-deficit [1]: −12.0±0.2 mEq/L and −12.0 ± 0.2^#Δ mEq/L
Hematocrit [1]: 21.5 ± 1.8%
Lactate [1]: 1.9 ± 0.1^#Δ mmol/L
PCO2 [1]: 26.0 ± 1.6 mmHg
arterial blood pH [1]: 7.24 ± 0.02^Δ
pO2 [1]: 131.3 ± 5.4 mmHg
Base-deficit [2]: −11.6±0.5 mEq/L and −11.6 ± 0.5^#Δ mEq/L
Hematocrit [2]: 21.3 ± 1.3%
Lactate [2]: 1.7 ± 0.2^#Δ mmol/L
PCO2 [2]: 27.3 ± 1.9 mmHg
arterial blood pH [2]: 7.28 ± 0.01^Δ
pO2 [2]: 121.3 ± 4.6 mmHg
Base-deficit [3]: −2.9 ± 0.3 mEq/L
Hematocrit [3]: 36.8 ± 1.3%
Lactate [3]: 1.5 ± 0.2 mmol/L
PCO2 [3]: 33.8 ± 1.2 mmHg
arterial blood pH [3]: 7.38 ± 0.01
pO2 [3]: 125.5 ± 1.9 mmHg
Base-deficit [4]: −2.8 ± 0.3 mEq/L
Hematocrit [4]: 39.3 ± 1.6%
Lactate [4]: 1.8 ± 0.1 mmol/L
PCO2 [4]: 34.5 ± 2.1 mmHg
arterial blood pH [4]: 7.38 ± 0.01
pO2 [4]: 120.2 ± 1.2 mmHg
Base-deficit [5]: −15.3 ± 0.4 mEq/L
Hematocrit [5]: 24.8 ± 1.5 %
Lactate [5]: 7.6 ± 0.3 mmol/L
PCO2 [5]: 15.9 ± 0.9 mmHg
arterial blood pH [5]: 7.23 ± 0.02
pO2 [5]: 145.6 ± 1.9 mmHg
Base-deficit [6]: −15.4 ± 0.9 mEq/L
Hematocrit [6]: 22.2 ± 0.7 %
Lactate [6]: 7.4 ± 0.4 mmol/L
PCO2 [6]: 16.3 ± 1.5 mmHg
arterial blood pH [6]: 7.25 ± 0.03
pO2 [6]: 142.8 ± 1.8 mmHg
change in hematocrit after treatment [7]: no change
effect on blood pH of hemorrhaged rats [7]: significantly prevented the reduction of pH
blood lactate levels compared to the hypertonic saline group (centhaquin 0.017 and 0.05 mg/kg, p<0.001): significant decrease
effect on hemorrhage-induced decrease in pCO2 and increase in pO2 (resuscitation with centhaquin): not affected
